According to patent US20230330254A1 (Regeneron Pharmaceuticals, Inc., priority 2022, published 2023):
*1 amine or outer side, *2 acyl side, *3 side chain or, on linkers, in order; H or OH if unused. Where a SMILES comes first, the peptide text is derived from it. [ ]: non-standard residue; d: D form. The star is where a group is joined. Bip(2'-Et-4'-O(CH2)4NH2) = CCc1cc(OCCCCN[*:3])ccc1-c1ccc(C[C@H](N[*:1])C(=O)[*:2])cc1; X10 = O=C(NCCOCCOCCOCCOC(=O)*)OC[C@@H]1[C@@H]2CCc3[nH]nnc3CC[C@@H]21; Malonyl(2,2-Me2,histaminyl) = CC(C)(C(=O)NCCc1cnc[nH]1)C(=O)*; Nva(5-(3,5-Me2Ph)) = Cc1cc(C)cc(CCC[C@H](N)C(=O)O)c1; Ala(1H-tetrazol-5-yl) = N[C@@H](Cc1nnn[nH]1)C(=O)O; αMePhe(2-F) = C[C@](N)(Cc1ccccc1F)C(=O)O

How the values were obtained:
HEK293/CRE-Luc cells [1] = experiment: Luciferase reporter assay, HEK293/CRE-Luc cells without hGLP1R (Example 11); type: cell-based, human; conditions: Experiment A
Source text: To test the activity of GLP1R agonist payloads, GLP1R agonist linker-payloads (LPs), and anti-GLP1R antibody tethered drug conjugates (ATDCs) of the disclosure, a cell-based cAMP responsive luciferase reporter assay was developed. To generate the assay cell line, the firefly luciferase gene was placed under the control of a cAMP response element (CRE) located upstream of a minimal promoter and transfected into HEK293 cells and referred to herein as HEK293/CRE-Luc cells.
Three-fold serial dilutions of free payloads or LPs were prepared in 100% DMSO, transferred to fresh assay media, and added to the cells at a final constant DMSO concentration of 0.2%. The last well in the plate served as a blank control containing only the assay media and 0.2% DMSO (untreated well) and was plotted as a continuation of the 3-fold serial dilution. Four to six hours later, luciferase activity was determined after the addition of One-Glo™ reagent (Promega, Cat #E6130) to each well. Relative light units (RLUs) were measured on an Envision luminometer (PerkinElmer) and EC50 values were determined using a four-parameter logistic equation over a 12-point dose response curve (GraphPad Prism). The signal to noise (S/N) was determined by taking the ratio of the highest RLU on the dose response curve to the RLU in the untreated wells.

HEK293/CRE-Luc cells [2] = experiment: Luciferase reporter assay, HEK293/CRE-Luc cells without GLP1R (Example 17); type: cell-based, human; conditions: HEK293/CRE-Luc cells without hGLP1R
In short: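 HEK293 cells carrying a CRE-driven firefly luciferase reporter were exposed to 3-fold serial dilutions of payloads or linker-payloads (12 points, 0.2% DMSO final) for 4–6 h, then luminescence was read. EC50 came from a four-parameter logistic fit; S/N is top RLU over untreated wells, and relative potency and S/N are referenced to M2361.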

[3] = Plasma stability of payloads and linker-payloads, human plasma; type: in vitro ADME; conditions: plasma, pH 7.4, tested time D (7 days), 2 μM, 37° C., read-out: Human plasma stability assay T½ (converted)
Procedure: The plasma stability of payloads and linker payloads of the disclosure were measured. For the assay, pooled frozen plasma (human, mouse or monkey) was thawed in cold water or a 37° C. water bath prior to experiment. Plasma was centrifuged at 4000 rpm for 5 min if any clots were observed, they were subsequently removed. If required, the pH was adjusted to 7.4±0.1. For the preparation of compounds and positive controls, a 1 mM intermediate solution was prepared by diluting 10 μL of their stock solution with 90 μL DMSO; a 1 mM intermediate solution of the positive control (Propantheline) was prepared by diluting 10 μL of its stock solution with 90 μL ultrapure water. […] 98 μL of plasma was spiked with 2 μL of dosing solution (100 μM) to achieve the final concentration of 2 μM in duplicate. Samples were then incubated at 37° C. in a water bath. […] At each time point, 400 μL of stop solution (200 ng/mL tolbutamide plus 200 ng/mL labetalol in 50% ACN/MeOH) was added to precipitate protein and mixed thoroughly. Sample plates were then centrifuged at 4,000 rpm for 10 min. An aliquot of supernatant (50 μL) was transferred from each well and mixed with 100 μL ultrapure water. The samples were then shaken at 800 rpm for approximately 10 min before submitting for LC-MS/MS analysis.

SMILES: CC[C@H](C)[C@H](NC(=O)[C@H](Cc1ccccc1)NC(=O)[C@H](CCC(=O)O)NC(=O)[C@H](CCCCN)NC(=O)[C@H](C)NC(=O)[C@H](C)NC(=O)[C@H](CCC(N)=O)NC(=O)CNC(=O)[C@H](CCC(=O)O)NC(=O)[C@H](CC(C)C)NC(=O)[C@H](Cc1ccc(O)cc1)NC(=O)[C@H](CO)NC(=O)[C@H](CO)NC(=O)[C@@H](NC(=O)[C@H](CC(=O)O)NC(=O)[C@H](CO)NC(=O)[C@@H](NC(=O)[C@H](Cc1ccccc1)NC(=O)[C@@H](NC(=O)CNC(=O)[C@H](CCC(=O)O)NC(=O)[C@H](C)NC(=O)[C@@H](N)Cc1c[nH]cn1)[C@@H](C)O)[C@@H](C)O)C(C)C)C(=O)N[C@@H](C)C(=O)N[C@@H](Cc1c[nH]c2ccccc12)C(=O)N[C@@H](CC(C)C)C(=O)N[C@H](C(=O)N[C@@H](CCCCN)C(=O)NCC(=O)N[C@@H](CCCNC(=N)N)C(N)=O)C(C)C [GLP1, glucagon-like peptide 1, reference compound]
- HEK293/CRE-LUC S/N (HEK293/CRE-Luc cells [1]; Table 11, no hGLP1R expression): 1.3
- HEK293/CRE-Luc S/N (HEK293/CRE-Luc cells [1]; Table 12): 1.4
- S/N (HEK293/CRE-Luc cells [2]; ATDCs and references (Table 27)): 1.4
- S/N (HEK293/CRE-Luc cells [2]; payloads and linker-payloads): 1.3

SMILES: CCc1cc(OCCCCn2cc(COCCOCCOCCOCCNC(=O)OC[C@@H]3[C@@H]4CCc5[nH]nnc5CC[C@@H]43)nn2)ccc1-c1ccc(C[C@H](NC(=O)[C@H](CC(=O)O)NC(=O)[C@H](CO)NC(=O)[C@@H](NC(=O)[C@](C)(Cc2ccccc2F)NC(=O)[C@@H](NC(=O)CNC(=O)[C@H](Cc2nn[nH]n2)NC(=O)C(C)(C)C(=O)NCCc2cnc[nH]2)[C@@H](C)O)[C@@H](C)O)C(=O)N[C@@H](CCCc2cc(C)cc(C)c2)C(N)=O)cc1 [LP24, triazole-BCN-PEG4-triazole-P8]
- half-life at 2 µM [3]: > 16.9 days

SMILES: CCc1cc(OCCCCNC(=O)OCCOCCOCCOCCNC(=O)OC[C@@H]2[C@@H]3CCc4[nH]nnc4CC[C@@H]32)ccc1-c1ccc(C[C@H](NC(=O)[C@H](CC(=O)O)NC(=O)[C@H](CO)NC(=O)[C@@H](NC(=O)[C@](C)(Cc2ccccc2F)NC(=O)[C@@H](NC(=O)CNC(=O)[C@H](Cc2nn[nH]n2)NC(=O)C(C)(C)C(=O)NCCc2cnc[nH]2)[C@@H](C)O)[C@@H](C)O)C(=O)N[C@@H](CCCc2cc(C)cc(C)c2)C(N)=O)cc1 [LP25, triazole-BCN-PEG4-carba-mate-P9] ({Malonyl(2,2-Me2,histaminyl)}-[Ala(1H-tetrazol-5-yl)]GT[αMePhe(2-F)]TSD[Bip(2'-Et-4'-O(CH2)4NH2)](X10)[Nva(5-(3,5-Me2Ph))]-NH2)
- half-life at 2 µM [3]: 11.9 days

SMILES: CCc1cc(OCCCCNC(=O)[C@H](CO)NC(=O)CNC(=O)CNC(=O)CNC(=O)CNC(=O)CCC(=O)N2Cc3ccccc3-c3nn[nH]c3-c3ccccc32)ccc1-c1ccc(C[C@H](NC(=O)[C@H](CC(=O)O)NC(=O)[C@H](CO)NC(=O)[C@@H](NC(=O)[C@](C)(Cc2ccccc2F)NC(=O)[C@@H](NC(=O)CNC(=O)[C@H](Cc2nn[nH]n2)NC(=O)C(C)(C)C(=O)NCCc2cnc[nH]2)[C@@H](C)O)[C@@H](C)O)C(=O)N[C@@H](CCCc2cc(C)cc(C)c2)C(N)=O)cc1 [LP26, triazole- DIBAC- G4S-P9]
- half-life at 2 µM [3]: > 16.9 days
